Reference: patent US8946158B2, “Treatments of gastrointestinal disorders” (Ironwood Pharmaceuticals, Inc., priority 2009, dated 2015)
Positions of bridges follow the written chain, without caps; N, C: chain ends. Non-standard residues stand in square brackets, D forms with d. Residues, ends and D or L forms follow the SMILES beside them. pS = N[C@@H](COP(=O)(O)O)C(=O)O

Columns and labels:
[1] = In vitro metabolism in mouse jejunum loop fluid; assay type: in vitro ADME; details: for Rate of degradation relative to peptide 2: mouse intestinal fluid
Method: The purpose of this study was to determine the stability of phosphorylated peptides in mouse jejunal loop fluid. […] The isotopically labeled peptide 2 was synthesized with ^13C, ^15N-labeled alanine and leucine (i.e., with a sequence CCpS[^13C6,^15N]LCCNP[^13C6,^15N]ACTGC (SEQ ID NO:16)).
Each peptide was synthesized by American Peptide Company, Inc., and was stored desiccated at −20° C. A 1 mg/mL solution for each of the non-labeled peptides was prepared in 1 M tris(hydroxymethyl)aminomethane hydrochloride (Tris-HCl), pH 8 just prior to conducting the mouse intestinal loop fluid assay. A 500 ng/mL solution of ^13C, ^15N-labeled peptide 2 was prepared in 0.1% formic acid in water and was utilized to dilute the jejunum samples for post-assay LC-MS/MS analysis.
To collect the fluid, mice were fasted overnight with full access to water. They were then anesthetized with isofluorane for surgery and subjected to laparotomy in which the small intestine was exteriorized. Jejunum loops of 3 to 4 cm in length were made with sutures starting at 7 cm from the pyloric sphincter of the stomach. Once the loops were formed, they were injected with 200 μL of phosphate buffered saline (PBS) buffer (10 mM, pH 7.4). The abdominal wall and skin of the animals were then sutured, and the animals were allowed to recover for 30 minutes. Following recovery, the animals were sacrificed, the loops were then excised and the fluid inside was recovered and stored at −80° C. until use.
For each peptide, 25 μL of the 1 mg/mL peptide stock solution was added to 25 μL of 1 M Tris-HCl and 25 μL of 10× calf intestinal phosphatase (CIP) buffer containing 500 mM Tris-HCl, 1 M sodium chloride (NaCl), 0.1 mM magnesium chloride (MgCl2), pH 8. The reactions were initiated by adding 175 μL of the mouse jejunum loop fluid or 175 μL of the 1 M Tris-HCl pH8 buffer for the control reactions. The final concentration of each peptide was 100 μg/mL. The reactions were continuously mixed and maintained at 37° C. on a plate shaker. At 0, 2, 5, 10, 20, 30, 60, 90 and 120 minutes after adding the mouse intestinal loop fluid, a 25 μL aliquot was taken and added to 25 μL of 4° C. 12% trichloroacetic acid to stop the reaction. An additional 200 μL of 0.1% formic acid in water was added to these reactions for dilution purposes. These samples were then further diluted by taking 20 μL of each sample and adding it to 480 μL of 0.1% formic acid in water containing 500 ng/mL of the internal standard 13C, 15N-labeled peptide 2.
All samples were analyzed using an Applied Biosystems/MDS SCIEX API 4000 triple quadrupole mass spectrometer equipped with a high-performance liquid chromatography (HPLC) system. The mass spectrometer was operated in multiple reaction monitoring (MRM) mode, with resolution set to 1.2 Da. […]

[2] = target: T1, Calf intestinal alkaline phosphatase (CIP) (Bos taurus, UniProt P19111); test: Alkaline phosphatase reaction (dephosphorylation of peptide substrates, LC-MS); assay type: in vitro ADME; details: with and without calf intestinal alkaline phosphatase; data not shown
T1 construct: purchased New England BioLabs M0290S
T1 sequence (P19111 20-506): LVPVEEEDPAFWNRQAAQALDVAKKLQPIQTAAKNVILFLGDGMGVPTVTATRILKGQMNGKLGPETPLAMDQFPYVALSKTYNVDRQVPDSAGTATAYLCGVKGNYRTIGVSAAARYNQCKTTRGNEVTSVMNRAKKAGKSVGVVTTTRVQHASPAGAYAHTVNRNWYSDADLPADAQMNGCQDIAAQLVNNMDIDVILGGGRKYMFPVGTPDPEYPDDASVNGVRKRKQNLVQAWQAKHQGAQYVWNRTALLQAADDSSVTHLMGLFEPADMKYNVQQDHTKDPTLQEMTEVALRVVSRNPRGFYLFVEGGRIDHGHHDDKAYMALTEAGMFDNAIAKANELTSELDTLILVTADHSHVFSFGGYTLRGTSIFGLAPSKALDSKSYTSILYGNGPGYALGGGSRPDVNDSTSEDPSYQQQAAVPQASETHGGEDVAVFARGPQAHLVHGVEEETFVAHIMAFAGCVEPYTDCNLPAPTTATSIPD
Method: For the alkaline phosphatase reactions, peptide stocks were prepared at 1 mg/mL in 0.1 M Tris-HCl pH 8, which were stored at −20° C. until assays were conducted. For the acid phosphatase reactions, peptide stocks were prepared at 1 mg/mL in 50 mM sodium phosphate pH 6, which was stored at −20° C. until assays were conducted.
Calf intestinal alkaline phosphatase (CIP) was obtained from New England BioLabs, Ipswich, Mass. Cat #M0290S. The CIP reaction solution was prepared by dilution with buffer (50 mM KCl, 10 mM Tris-HCl pH 8, 1 mM MgCl2, 50% glycerol) to 0.5 units/μL. The alkaline phosphatase reaction solutions were assembled in 20 μL quantities containing: • 2 μL 10× CIP buffer (1M NaCl, 500 mM Tris-HCl pH 8, 100 mM MgCl2) • 2 μL peptide stock (1 mg/mL) • 12 μL H2O • 4 μL alkaline phosphatase (0, 0.5 or 2 units)
The reaction solutions were mixed gently and incubated for 90 minutes at 37° C. These reaction solutions were stored at −20° C. until analysis. For analysis, the reaction solutions were diluted from […] of CIP treated peptide to 50 μL with 0.1% formic acid in water to a final concentration of 10 μM.
Control reactions were assembled for enzyme activity containing 10 mM p-nitrophenylphosphate in place of peptide. After incubation, the reactions were diluted with 0.1 mL of 100 mM borate buffer pH 9 and read at the absorbance of 405 nm to monitor p-nitrophenol appearance.

upper GI transit in mice = test: Gastrointestinal transit in mice (charcoal meal); assay type: in vivo; details: female CD-1 mice; oral gavage; distance travelled by charcoal front, % of small intestine
Method: The purpose of the assay was to test the effect of the guanylate cyclase C agonist peptides on in vivo gastrointestinal transit in mice.
For the assay, female CD-1 mice (n=10 per group) weighing 25-30 g were fasted overnight and given access to water ad libitum. Activated charcoal (20 g; 100 mesh; Sigma cat #242276) was suspended in 200 mL gum arabic (100 mg/mL), and stirred for at least one hour. Test peptides were prepared in a 20 mM Tris pH 6.9 vehicle.
Test peptide and vehicle were administered in 200 μL doses by oral gavage. Seven minutes after dosing the test peptides, 200 μL of the charcoal/gum arabic suspension was dosed by oral gavage. […] The total length of the small intestine was measured from the pyloric junction to the ileocaecal junction. The distance travelled by the charcoal was measured from the pyloric junction to the charcoal front. The Distance Travelled (%) was determined as (distance travelled by charcoal/total length of the small intestine)×100. Data were entered into the GraphPad Prism software program and analyzed by ANOVA using a Bonferroni multiple comparison test post-hoc. Plots of data and ED50 were also determined using the GraphPad Prism software package.
The dose-dependent effects of acute doses of Peptide 4, Peptide 1, Peptide 2, the dephosphorylated form of Peptide 1 and the dephosphorylated form of Peptide 2 on GI transit were determined in female CD mice. […]

[3] = tested on: ligated rat duodenal loops; test: Fluid secretion in rat intestinal loops; assay type: in vivo; details: 2.5 μg of peptide per loop
Method: The effect of GC-C agonist peptides on secretion were studied by injecting GC-C agonist peptides described herein directly into an isolated loop in wild-type rats.
Loops were isolated by surgically ligating three loops in the small intestine of the rat. The methodology for ligated loop formation was similar to that described in (London et al., 1997, Am J Physiol, p. G93-105). The loops were roughly centered and at lengths of 1-3 cm. The loops were injected with 200 μl of either peptide/GC-C agonist (0.1-5 μg) or vehicle (20 mM Tris, pH 7.5 or Krebs Ringer, 10 mM Glucose, HEPES buffer (KRGH)). Following a recovery time of up to 90 minutes the loops were excised. Weights were recorded for each loop before and after removal of the fluid contained therein. The length of each loop was also recorded. A weight to length ratio (W/L) for each loop was calculated to determine the effects of the GC-C agonist peptide described herein on secretion. Loop fluid volume was also determined.
Data showing increases in fluid secretion, pH increase and bicarbonate secretion in ligated duodenal loops in rats are shown in FIG. 2 and Table 8. […] Table 8 provides the results in ligated rat duodenal loops using 2.5 μg of peptide per loop.

With `CC(C)C[C@@H]1NC(=O)[C@H](CO)NC(=O)[C@@H]2CSSC[C@@H]3NC(=O)[C@H](C)NC(=O)[C@@H]4CCCN4C(=O)[C@H](CC(N)=O)NC(=O)[C@H](CSSC[C@H](N)C(=O)N2)NC(=O)[C@H](CSSC[C@@H](C(=O)O)NC(=O)CNC(=O)[C@H]([C@@H](C)O)NC3=O)NC1=O` [Dephospho-Peptide 2, CCSLCCNPACTGC] (H-CCSLCCNPACTGC-OH; disulfide 1-6, 2-10, 5-13 (inferred); N-terminus and C-terminus assumed) as the compound, how does the “Rate of degradation relative to peptide 2” value [1] read?
Its value is “degraded faster in mouse intestinal fluid than peptide 2”.

For `CC(C)C[C@@H]1NC(=O)[C@H](COP(=O)(O)O)NC(=O)[C@@H]2CSSC[C@@H]3NC(=O)[C@H](C)NC(=O)[C@@H]4CCCN4C(=O)[C@H](CC(N)=O)NC(=O)[C@H](CSSC[C@H](N)C(=O)N2)NC(=O)[C@H](CSSC[C@@H](C(=O)O)NC(=O)CNC(=O)[C@H]([C@@H](C)O)NC3=O)NC1=O` [Peptide 2, CCpSLCCNPACTGC] (H-CC[pS]LCCNPACTGC-OH; disulfide 1-6, 2-10, 5-13 (inferred); N-terminus and C-terminus assumed), which Metabolite formation ([1]; mouse jejunum loop fluid at 37° C.) is on record?
The Metabolite formation was “Formation of dephospho-peptide 2 was observed”.

Which results are given for `CC(C)C[C@@H]1NC(=O)[C@H](CCC(=O)O)NC(=O)[C@@H]2CSSC[C@@H]3NC(=O)[C@H](C)NC(=O)[C@@H]4CCCN4C(=O)[C@H](CC(N)=O)NC(=O)[C@H](CSSC[C@H](N)C(=O)N2)NC(=O)[C@H](CSSC[C@@H](C(=O)N[C@@H](Cc2ccc(O)cc2)C(=O)O)NC(=O)CNC(=O)[C@H]([C@@H](C)O)NC3=O)NC1=O` [Peptide 3, CCELCCNPACTGCY] (H-CCELCCNPACTGCY-OH; disulfide 1-6, 2-10, 5-13 (inferred); N-terminus and C-terminus assumed)?
Effect of CIP treatment on peptide (LC-MS) [2]: not affected; Rate of degradation relative to peptide 2 [1]: degraded faster in mouse intestinal fluid than peptide 2; Peptide remaining (detection) ([1]; mouse jejunum fluid, after 90 minutes, 37° C.): not detected

Which “ED50, acceleration of upper GI transit in mice” value (upper GI transit in mice) does the source give for “CCEFCCNPACTGCY (Synthetically generated peptide (Peptide 4))” here?
Its value is 2.06 µg/kg.

And the “Rate of HCO3− accumulation” value [3]?
The value was 0.00008 Meq/min/cm.

What about the “Rate of fluid accumulation” value [3] of the same compound?
Its value is 2.0 µL/min/cm.

What about the pH [3] of the same compound?
The pH was 8.2.
